Assay results taken from publication PMC9572083, “Hybrids of 1,4-Quinone with Quinoline Derivatives: Synthesis, Biological Activity, and Molecular Docking with DT-Diaphorase (NQO1)” (Molecules, 2022).

Molecular target: T1, NQO1 (DT-diaphorase, EC 1.6.5.5, human recombinant) (Homo sapiens, UniProt P15559)
T1 construct: purchased Sigma-Aldrich
Test: NQO1 substrate NADPH recycling enzymatic assay
Type: biochemical
Settings: compound 10 µmol/L, pH 7.4, 25 °C, absorbance at 340 nm
Description: The interaction between 1,4-quinone moiety of hybrid and NQO1 protein leads to reduction in quinone to hydroquinone and production of reactive oxide form (ROS). According to a literature method, the ability of hybrids 11–14 and streptonigrin (ST) to be a substrate for NQO1 was examined by measuring the oxidation of NADPH to NADP^+ [29, 32].
Compounds 11–14 (10 µmol/L) were tested as NQO1 substrates using the NADPH recycling assay according to the literature method. The recombinant NQO1 (DT-diaphorase, EC 1.6.5.5, human recombinant, Sigma-Aldrich) was used, and the oxidation of NADPH to NADP^+ was measured at the absorption wavelength of 340 nm on the BioTek 800TS microplate reader (BioKom, Janki, Poland). Compounds were dissolved in dimethyl sulfoxide (2 µL) and added to the 96-well plate. The NQO1 protein (1.4 µg/mL) in 50 mmol/L potassium phosphate buffer (pH = 7.4) was added to each well (198 µL) (Nunc Thermo Fisher Scientific, Waltham, MA, USA). Once the 96-well plate was filled with the assay solutions, except the NADPH solution, it was placed into the instrument and left to sit for 5 min before starting the measurements. The enzymatic reaction was initiated by automatically dispensing the NADPH solution into the wells, and data were recorded at 10 s intervals for 5 min at 25 °C. The linear part of the absorbance vs. time graphs (the first 20 s to 1 min) was fitted, and the slopes were calculated. NADPH oxidation rates were compared with reactions lacking the tested compound. Initial velocities were calculated, and data were expressed as µmol NADPH/µmol NQO1/min. All reactions were carried out at least in triplicate.

T1 sequence (P15559 whole entry): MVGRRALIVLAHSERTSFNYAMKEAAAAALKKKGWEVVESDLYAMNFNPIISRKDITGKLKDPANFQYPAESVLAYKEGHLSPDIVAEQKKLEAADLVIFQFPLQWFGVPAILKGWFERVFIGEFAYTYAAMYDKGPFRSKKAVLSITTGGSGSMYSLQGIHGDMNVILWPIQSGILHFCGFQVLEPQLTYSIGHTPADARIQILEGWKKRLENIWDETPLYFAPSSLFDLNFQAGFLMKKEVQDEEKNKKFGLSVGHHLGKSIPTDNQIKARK

Row | Structure (SMILES) | NQO1 activity (enzymatic conversion rate)
1 | O=C1C(Cl)=C(Oc2cccc3ccc(N4CCOCC4)nc23)C(=O)c2ccccc21 [Compound 14f, 2-chloro-3-{[2-(morpholin-4-yl)quinolin-8-yl]oxy}naphthalene-1,4-dione] | 87 ± 15 µmol NADPH/µmol NQO1/min
2 | O=C1C(Cl)=C(Oc2cccc3ccc(N4CCCC4)nc23)C(=O)c2ccccc21 [Compound 14e, 2-chloro-3-{[2-(pyrrolidin-1-yl)quinolin-8-yl]oxy}naphthalene-1,4-dione] | 354 ± 22 µmol NADPH/µmol NQO1/min
3 | COC1=C(N)C(=O)c2nc(-c3nc(C(=O)O)c(C)c(-c4ccc(OC)c(OC)c4O)c3N)ccc2C1=O [ST, streptonigrin, reference compound] | 725 ± 84 µmol NADPH/µmol NQO1/min

Same assay, conditions: compound 10 µmol/L, pH 7.4, 25 °C, absorbance at 340 nm; listed as streptonigrin

Row | Structure (SMILES) | NQO1 activity (enzymatic conversion rate)
4 | COC1=C(N)C(=O)c2nc(-c3nc(C(=O)O)c(C)c(-c4ccc(OC)c(OC)c4O)c3N)ccc2C1=O [ST, streptonigrin, reference compound] | 725 µmol NADPH/µmol NQO1/min

Tested on: Colo-829 cells
Test: Cytotoxic activity, WST-1 assay, melanoma Colo-829
Type: cell-based, human
Settings: HFF-1 vs Colo-829
Text: (§1) Anticancer activity of compounds 11–14 was designated against following human cancer cell lines: melanoma (Colo-829), ovarian cancer (SK-OV-3), breast cancer (MDA-MB-231, T47D and MCF-7), lung cancer (A549) and normal fibroblasts (HFF-1). As a reference substance, the doxorubicin was used. The results are presented in Table 1 as IC50, where IC50 means the concentration of tested compounds (µM) causing the growth inhibition of 50% for given tumor cells. The negative value (Neg.) means that the IC50 is higher than 30 µM. Selectivity index (SI) as the ratio of the IC50 for normal fibroblast (HFF-1) to IC50 of the corresponding cell line, is presented in Table S2.
(§2) Compounds 7–14 and doxorubicin were tested for cytotoxic activity in vitro against panel of human cancer cell lines: melanoma (Colo-829, ATCC, Rockville, MD, USA), ovarian cancer (SK-OV-3, ATCC, Rockville, MD, USA), breast cancer (T47D, MCF-7, and MDA-MB-231, ATCC, Rockville, MD, USA) and lung cancer (A549, ATCC, Rockville, MD, USA). The cultured cells were kept at 37 °C and 5% CO2. The cells were seeded (5 × 10^4 cells/well/[…] DMEM supplemented with 10% FCS and streptomycin/penicillin) using 96-well plates (Nunc Thermo Fisher Scientific, Waltham, MA, USA). The tested compounds 7–14 with the concentration of 1–100 µg/mL DMSO were inducted with the cancer cells for 72 h. The WST-1-formazan (proliferation reagent WST-1 assay, Roche Diagnostics, Mannheim, Germany) was detected using a microplate reader at 450 nm. Results were expressed as a mean value of at least three independent experiments performed in triplicate.

Row | Structure (SMILES) | SI (IC50 HFF-1/IC50 cancer line) Colo-829
5 | COc1cccc2c1C(=O)c1c(O)c3c(c(O)c1C2=O)C[C@@](O)(C(=O)CO)C[C@@H]3O[C@H]1C[C@H](N)[C@H](O)[C@H](C)O1 [Doxorubicin, doxorubicin, reference compound] | 2.40
6 | O=C1C(Cl)=C(Oc2cccc3ccc(N4CCCC4)nc23)C(=O)c2ccccc21 [Compound 14e, 2-chloro-3-{[2-(pyrrolidin-1-yl)quinolin-8-yl]oxy}naphthalene-1,4-dione] | 0.85

Same assay, conditions: Homo sapiens; melanoma Colo-829, 72 h, WST-1

Row | Structure (SMILES) | IC50
7 | COc1cccc2c1C(=O)c1c(O)c3c(c(O)c1C2=O)C[C@@](O)(C(=O)CO)C[C@@H]3O[C@H]1C[C@H](N)[C@H](O)[C@H](C)O1 [Doxorubicin, doxorubicin, reference compound] | 0.05 ± 0.01 µM
8 | O=C1C(Cl)=C(Oc2cccc3ccc(N4CCOCC4)nc23)C(=O)c2ccccc21 [Compound 14f, 2-chloro-3-{[2-(morpholin-4-yl)quinolin-8-yl]oxy}naphthalene-1,4-dione] | 11.3 ± 1.97 µM
9 | O=C1C(Cl)=C(Oc2cccc3ccc(N4CCCC4)nc23)C(=O)c2ccccc21 [Compound 14e, 2-chloro-3-{[2-(pyrrolidin-1-yl)quinolin-8-yl]oxy}naphthalene-1,4-dione] | 22 ± 0.6 µM

Tested on: SK-OV-3 cells
Test: Cytotoxic activity, WST-1 assay, ovarian cancer SK-OV-3
Type: cell-based, human
Settings: HFF-1 vs SK-OV-3
Text: as §1, §2

Row | Structure (SMILES) | SI (IC50 HFF-1/IC50 cancer line) SK-OV-3
10 | COc1cccc2c1C(=O)c1c(O)c3c(c(O)c1C2=O)C[C@@](O)(C(=O)CO)C[C@@H]3O[C@H]1C[C@H](N)[C@H](O)[C@H](C)O1 [Doxorubicin, doxorubicin, reference compound] | 0.80
11 | O=C1C(Cl)=C(Oc2cccc3ccc(N4CCCC4)nc23)C(=O)c2ccccc21 [Compound 14e, 2-chloro-3-{[2-(pyrrolidin-1-yl)quinolin-8-yl]oxy}naphthalene-1,4-dione] | 1.17

Same assay, conditions: Homo sapiens; ovarian cancer SK-OV-3, 72 h, WST-1

Row | Structure (SMILES) | IC50
12 | COc1cccc2c1C(=O)c1c(O)c3c(c(O)c1C2=O)C[C@@](O)(C(=O)CO)C[C@@H]3O[C@H]1C[C@H](N)[C@H](O)[C@H](C)O1 [Doxorubicin, doxorubicin, reference compound] | 0.15 ± 0.03 µM
13 | O=C1C(Cl)=C(Oc2cccc3ccc(N4CCOCC4)nc23)C(=O)c2ccccc21 [Compound 14f, 2-chloro-3-{[2-(morpholin-4-yl)quinolin-8-yl]oxy}naphthalene-1,4-dione] | 14.2 ± 0.76 µM
14 | O=C1C(Cl)=C(Oc2cccc3ccc(N4CCCC4)nc23)C(=O)c2ccccc21 [Compound 14e, 2-chloro-3-{[2-(pyrrolidin-1-yl)quinolin-8-yl]oxy}naphthalene-1,4-dione] | 15.9 ± 0.22 µM

Tested on: MDA-MB-231 cells
Test: Cytotoxic activity, WST-1 assay, breast cancer MDA-MB-231
Type: cell-based, human
Settings: HFF-1 vs MDA-MB-231
Text: as §1, §2

Row | Structure (SMILES) | SI (IC50 HFF-1/IC50 cancer line) MDA-MB-231
15 | COc1cccc2c1C(=O)c1c(O)c3c(c(O)c1C2=O)C[C@@](O)(C(=O)CO)C[C@@H]3O[C@H]1C[C@H](N)[C@H](O)[C@H](C)O1 [Doxorubicin, doxorubicin, reference compound] | 0.19
16 | O=C1C(Cl)=C(Oc2cccc3ccc(N4CCCC4)nc23)C(=O)c2ccccc21 [Compound 14e, 2-chloro-3-{[2-(pyrrolidin-1-yl)quinolin-8-yl]oxy}naphthalene-1,4-dione] | 2.43

Same assay, conditions: Homo sapiens; breast cancer MDA-MB-231, 72 h, WST-1

Row | Structure (SMILES) | IC50
17 | COc1cccc2c1C(=O)c1c(O)c3c(c(O)c1C2=O)C[C@@](O)(C(=O)CO)C[C@@H]3O[C@H]1C[C@H](N)[C@H](O)[C@H](C)O1 [Doxorubicin, doxorubicin, reference compound] | 0.64 ± 0.06 µM
18 | O=C1C(Cl)=C(Oc2cccc3ccc(N4CCOCC4)nc23)C(=O)c2ccccc21 [Compound 14f, 2-chloro-3-{[2-(morpholin-4-yl)quinolin-8-yl]oxy}naphthalene-1,4-dione] | 2.35 ± 0.09 µM
19 | O=C1C(Cl)=C(Oc2cccc3ccc(N4CCCC4)nc23)C(=O)c2ccccc21 [Compound 14e, 2-chloro-3-{[2-(pyrrolidin-1-yl)quinolin-8-yl]oxy}naphthalene-1,4-dione] | 7.66 ± 1.12 µM

Tested on: T47D cells
Test: Cytotoxic activity, WST-1 assay, breast cancer T47D
Type: cell-based, human
Settings: HFF-1 vs T47D
Text: as §1, §2

Row | Structure (SMILES) | SI (IC50 HFF-1/IC50 cancer line) T47D
20 | COc1cccc2c1C(=O)c1c(O)c3c(c(O)c1C2=O)C[C@@](O)(C(=O)CO)C[C@@H]3O[C@H]1C[C@H](N)[C@H](O)[C@H](C)O1 [Doxorubicin, doxorubicin, reference compound] | 3.00

Same assay, conditions: Homo sapiens; breast cancer T47D, 72 h, WST-1

Row | Structure (SMILES) | IC50
21 | COc1cccc2c1C(=O)c1c(O)c3c(c(O)c1C2=O)C[C@@](O)(C(=O)CO)C[C@@H]3O[C@H]1C[C@H](N)[C@H](O)[C@H](C)O1 [Doxorubicin, doxorubicin, reference compound] | 0.04 ± 0.01 µM
22 | O=C1C(Cl)=C(Oc2cccc3ccc(N4CCOCC4)nc23)C(=O)c2ccccc21 [Compound 14f, 2-chloro-3-{[2-(morpholin-4-yl)quinolin-8-yl]oxy}naphthalene-1,4-dione] | > 30 µM
23 | O=C1C(Cl)=C(Oc2cccc3ccc(N4CCCC4)nc23)C(=O)c2ccccc21 [Compound 14e, 2-chloro-3-{[2-(pyrrolidin-1-yl)quinolin-8-yl]oxy}naphthalene-1,4-dione] | > 30 µM

Tested on: MCF-7 cells
Test: Cytotoxic activity, WST-1 assay, breast cancer MCF-7
Type: cell-based, human
Settings: HFF-1 vs MCF-7
Text: as §1, §2

Row | Structure (SMILES) | SI (IC50 HFF-1/IC50 cancer line) MCF-7
24 | COc1cccc2c1C(=O)c1c(O)c3c(c(O)c1C2=O)C[C@@](O)(C(=O)CO)C[C@@H]3O[C@H]1C[C@H](N)[C@H](O)[C@H](C)O1 [Doxorubicin, doxorubicin, reference compound] | 1.00
25 | O=C1C(Cl)=C(Oc2cccc3ccc(N4CCCC4)nc23)C(=O)c2ccccc21 [Compound 14e, 2-chloro-3-{[2-(pyrrolidin-1-yl)quinolin-8-yl]oxy}naphthalene-1,4-dione] | 0.78

Same assay, conditions: Homo sapiens, MCF7; breast cancer MCF-7, 72 h, WST-1

Row | Structure (SMILES) | IC50
26 | COc1cccc2c1C(=O)c1c(O)c3c(c(O)c1C2=O)C[C@@](O)(C(=O)CO)C[C@@H]3O[C@H]1C[C@H](N)[C@H](O)[C@H](C)O1 [Doxorubicin, doxorubicin, reference compound] | 0.12 ± 0.05 µM
27 | O=C1C(Cl)=C(Oc2cccc3ccc(N4CCOCC4)nc23)C(=O)c2ccccc21 [Compound 14f, 2-chloro-3-{[2-(morpholin-4-yl)quinolin-8-yl]oxy}naphthalene-1,4-dione] | 17.4 ± 1.02 µM
28 | O=C1C(Cl)=C(Oc2cccc3ccc(N4CCCC4)nc23)C(=O)c2ccccc21 [Compound 14e, 2-chloro-3-{[2-(pyrrolidin-1-yl)quinolin-8-yl]oxy}naphthalene-1,4-dione] | 24.05 ± 0.21 µM

Tested on: A549 cells
Test: Cytotoxic activity, WST-1 assay, lung cancer A549
Type: cell-based, human
Settings: HFF-1 vs A549
Text: as §1, §2

Row | Structure (SMILES) | SI (IC50 HFF-1/IC50 cancer line) A549
29 | COc1cccc2c1C(=O)c1c(O)c3c(c(O)c1C2=O)C[C@@](O)(C(=O)CO)C[C@@H]3O[C@H]1C[C@H](N)[C@H](O)[C@H](C)O1 [Doxorubicin, doxorubicin, reference compound] | 6.00
30 | O=C1C(Cl)=C(Oc2cccc3ccc(N4CCCC4)nc23)C(=O)c2ccccc21 [Compound 14e, 2-chloro-3-{[2-(pyrrolidin-1-yl)quinolin-8-yl]oxy}naphthalene-1,4-dione] | 0.84

Same assay, conditions: Homo sapiens; lung cancer A549, 72 h, WST-1

Row | Structure (SMILES) | IC50
31 | COc1cccc2c1C(=O)c1c(O)c3c(c(O)c1C2=O)C[C@@](O)(C(=O)CO)C[C@@H]3O[C@H]1C[C@H](N)[C@H](O)[C@H](C)O1 [Doxorubicin, doxorubicin, reference compound] | 0.02 ± 0.01 µM
32 | O=C1C(Cl)=C(Oc2cccc3ccc(N4CCOCC4)nc23)C(=O)c2ccccc21 [Compound 14f, 2-chloro-3-{[2-(morpholin-4-yl)quinolin-8-yl]oxy}naphthalene-1,4-dione] | 14 ± 0.86 µM
33 | O=C1C(Cl)=C(Oc2cccc3ccc(N4CCCC4)nc23)C(=O)c2ccccc21 [Compound 14e, 2-chloro-3-{[2-(pyrrolidin-1-yl)quinolin-8-yl]oxy}naphthalene-1,4-dione] | 22.1 ± 0.89 µM

Tested on: HFF-1 cells
Test: Cytotoxic activity, WST-1 assay, normal fibroblasts HFF-1
Type: cell-based
Settings: Homo sapiens, normal fibroblasts HFF-1, 72 h
Text: as §1, §2

Row | Structure (SMILES) | IC50
34 | COc1cccc2c1C(=O)c1c(O)c3c(c(O)c1C2=O)C[C@@](O)(C(=O)CO)C[C@@H]3O[C@H]1C[C@H](N)[C@H](O)[C@H](C)O1 [Doxorubicin, doxorubicin, reference compound] | 0.12 ± 0.03 µM
35 | O=C1C(Cl)=C(Oc2cccc3ccc(N4CCOCC4)nc23)C(=O)c2ccccc21 [Compound 14f, 2-chloro-3-{[2-(morpholin-4-yl)quinolin-8-yl]oxy}naphthalene-1,4-dione] | 20.3 ± 0.87 µM
36 | O=C1C(Cl)=C(Oc2cccc3ccc(N4CCCC4)nc23)C(=O)c2ccccc21 [Compound 14e, 2-chloro-3-{[2-(pyrrolidin-1-yl)quinolin-8-yl]oxy}naphthalene-1,4-dione] | 18.7 ± 1.36 µM
